From PMC6941172 (Journal of medicinal chemistry, 2018)
Entries after “also recorded” stand apart in the source; their conditions may differ.

Columns and labels:
[1] = tested on: BZP rat brain site of GABAARs; test: PDSP radioligand displacement, [3H]flunitrazepam; type: binding; details: [3H]flunitrazepam displacement
[2] = target: GABAAR α6β3γ2 subtype (Rattus norvegicus, UniProt P18508+P30191+P63079); test: Electrophysiological assay in Xenopus oocytes, modulation of GABA EC3 currents; type: cell-based
Chain of GABAAR α6β3γ2 subtype (P30191 20-453): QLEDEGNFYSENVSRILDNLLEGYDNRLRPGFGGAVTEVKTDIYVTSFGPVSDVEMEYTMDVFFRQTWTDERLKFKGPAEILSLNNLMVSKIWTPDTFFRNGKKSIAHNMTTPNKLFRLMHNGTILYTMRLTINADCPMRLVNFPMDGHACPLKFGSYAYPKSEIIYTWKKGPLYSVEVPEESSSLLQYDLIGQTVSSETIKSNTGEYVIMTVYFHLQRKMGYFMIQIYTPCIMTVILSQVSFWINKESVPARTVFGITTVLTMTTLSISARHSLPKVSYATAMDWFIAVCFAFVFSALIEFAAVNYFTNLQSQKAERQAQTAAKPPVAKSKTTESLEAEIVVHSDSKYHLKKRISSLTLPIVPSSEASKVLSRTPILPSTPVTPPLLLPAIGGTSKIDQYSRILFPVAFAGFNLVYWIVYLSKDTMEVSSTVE
Chain of GABAAR α6β3γ2 subtype (P63079 26-473): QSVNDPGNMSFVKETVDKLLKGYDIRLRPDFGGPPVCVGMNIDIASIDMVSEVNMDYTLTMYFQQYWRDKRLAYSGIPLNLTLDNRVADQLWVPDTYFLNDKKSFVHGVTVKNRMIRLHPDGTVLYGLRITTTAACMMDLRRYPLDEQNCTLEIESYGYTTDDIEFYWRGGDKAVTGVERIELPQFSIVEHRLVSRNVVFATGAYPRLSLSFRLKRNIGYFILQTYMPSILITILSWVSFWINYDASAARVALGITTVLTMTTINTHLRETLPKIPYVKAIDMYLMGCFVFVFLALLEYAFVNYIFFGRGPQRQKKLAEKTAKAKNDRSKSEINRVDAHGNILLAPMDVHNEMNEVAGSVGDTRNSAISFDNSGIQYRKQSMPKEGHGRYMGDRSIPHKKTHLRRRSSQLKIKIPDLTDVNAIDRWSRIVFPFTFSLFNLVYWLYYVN
Chain of GABAAR α6β3γ2 subtype (P18508 39-466): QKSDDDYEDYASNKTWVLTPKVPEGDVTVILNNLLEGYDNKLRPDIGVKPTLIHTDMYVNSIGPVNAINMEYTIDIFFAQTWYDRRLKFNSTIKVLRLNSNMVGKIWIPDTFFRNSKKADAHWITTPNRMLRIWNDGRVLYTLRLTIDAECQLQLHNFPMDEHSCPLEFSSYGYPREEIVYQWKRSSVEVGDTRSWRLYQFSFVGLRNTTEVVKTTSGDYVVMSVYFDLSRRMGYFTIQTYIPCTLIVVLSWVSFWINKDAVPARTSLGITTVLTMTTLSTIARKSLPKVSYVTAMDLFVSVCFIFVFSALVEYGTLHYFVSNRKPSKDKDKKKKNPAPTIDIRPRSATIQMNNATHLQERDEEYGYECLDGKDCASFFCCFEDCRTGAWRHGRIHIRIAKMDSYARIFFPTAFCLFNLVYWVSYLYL

[3] = target: DOR (Homo sapiens, UniProt P41143); test: PDSP radioligand displacement, [3H]DADLE; type: binding; details: PDSP primary assay
Chain of DOR (P41143 whole entry): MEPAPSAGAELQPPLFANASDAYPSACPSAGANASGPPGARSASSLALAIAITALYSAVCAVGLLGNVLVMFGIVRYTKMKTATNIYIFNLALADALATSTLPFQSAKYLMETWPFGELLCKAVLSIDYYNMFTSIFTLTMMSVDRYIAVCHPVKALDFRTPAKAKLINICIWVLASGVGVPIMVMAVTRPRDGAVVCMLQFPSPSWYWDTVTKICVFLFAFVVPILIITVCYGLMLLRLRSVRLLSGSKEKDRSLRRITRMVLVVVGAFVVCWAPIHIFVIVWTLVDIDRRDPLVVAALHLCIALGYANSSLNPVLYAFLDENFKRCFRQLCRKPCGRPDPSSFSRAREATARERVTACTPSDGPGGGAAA

[4] = tested on: Female Swiss Webster mice; details: 5 mg/kg positive control
[5] = Microsomal stability assay, mouse liver microsomes; type: in vitro ADME; details: for Increase in half-life (MLM) relative to parent ligand: vs respective parent (8a, 8i, 8n or 8k)
[6] = Microsomal stability assay, human liver microsomes; type: in vitro ADME; details: for Increase in half-life (HLM) relative to parent ligand: vs respective parent (8a, 8i, 8n or 8k)
[7] = Pharmacokinetic study, IP 10 mg/kg, plasma and brain; type: in vivo, rat; details: rats
[8] = target: Dopamine D5 (Homo sapiens, UniProt P21918); test: PDSP radioligand displacement, [3H]SCH233930; type: binding; details: [3H]SCH233930, PDSP primary assay
Chain of Dopamine D5 (P21918 whole entry): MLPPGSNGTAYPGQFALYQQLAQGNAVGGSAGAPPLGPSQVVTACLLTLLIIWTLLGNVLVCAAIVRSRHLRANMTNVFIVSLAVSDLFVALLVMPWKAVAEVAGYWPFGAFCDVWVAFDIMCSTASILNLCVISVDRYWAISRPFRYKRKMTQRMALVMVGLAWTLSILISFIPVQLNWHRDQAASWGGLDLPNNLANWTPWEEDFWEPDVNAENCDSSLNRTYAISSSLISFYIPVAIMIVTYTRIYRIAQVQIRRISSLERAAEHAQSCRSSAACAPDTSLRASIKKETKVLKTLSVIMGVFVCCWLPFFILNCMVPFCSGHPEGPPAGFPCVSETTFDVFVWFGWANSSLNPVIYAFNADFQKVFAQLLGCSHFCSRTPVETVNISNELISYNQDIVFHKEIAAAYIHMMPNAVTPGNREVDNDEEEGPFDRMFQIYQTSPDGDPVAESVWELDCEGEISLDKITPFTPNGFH

[9] = tested on: C57BL/6 mice; test: Spontaneous locomotor activity assay in mice; type: in vivo, mouse; details: for Hyperlocomotor action: IP 3, 10 and 30 mg/kg
[10] = tested on: HEK293 (kidney) cells; test: Cytotoxicity assay; type: cell-based, human; details: HEK293, up to 400 μM, 48 hours
[11] = tested on: HEPG2 (liver) cells; test: Cytotoxicity assay; type: cell-based, human; details: HEPG2, up to 400 μM, 48 hours
[12] = Solubility assay; type: physicochemical; details: vs 8k, neutral and acidic aqueous media
[13] = tested on: α1-5β3γ2 receptors; test: Electrophysiological assay in Xenopus oocytes, other receptor subtypes; type: cell-based; details: two-point experiments
[14] = tested on: adult male Wistar rats; test: Spontaneous locomotor activity assay in rats; type: in vivo, rat
[15] = tested on: rats; test: Rotarod pilot experiment in rats; type: in vivo, rat

For `[2H]C([2H])([2H])Oc1ccccc1-n1nc2c3ccc(OC)cc3[nH]cc-2c1=O` [Compound 8h, 7-Methoxy-2-(2-methoxy-d3-phenyl)-2,5-dihydro-3H-pyrazolo[4,3-c]quinolin-3-one], the “Binding to the BZP rat brain site (in words)” value (“Binding” below) [1] was “significantly less binding; also recorded: significantly reduced affinity”.

With `COc1ccc(-n2nc3c4cnc(OC)cc4[nH]cc-3c2=O)cc1` [Compound 13i, 7-Methoxy-2-(4-methoxyphenyl)-2,5-dihydro-3H-pyrazolo[4,3-c][1,6]naphthyridin-3-one] the “Efficacy / activity at the α6β3γ2 subtype (in words)” value (“Efficacy / activity” for short) [2] was “retained some efficacy”.

With `[2H]C([2H])([2H])Oc1ccc(-n2nc3c4cc(Cl)ccc4[nH]cc-3c2=O)cc1` [Compound 8l, 8-Chloro-2-(4-methoxy-d3-phenyl)-2,5-dihydro-3H-pyrazolo[4,3-c]quinolin-3-one] the “Interaction with DOR” value [3] was “weakly interacted”.

With `CN1C(=O)CN=C(c2ccccc2)c2cc(Cl)ccc21` [diazepam] the Rotarod motor impairment [4] was “greatest impairment of sensorimotor steadiness at 10 minutes”.

In the case of `[2H]C([2H])([2H])Oc1ccc(-n2nc3c4ccc(Br)cc4[nH]cc-3c2=O)cn1` [Compound 13h, 7-Bromo-2-(6-methoxy-d3-pyridin-3-yl)-2,5-dihydro-3H-pyrazolo[4,3-c]quinolin-3-one], the “Increase in stability in MLM” value ([5]; vs 8o) is reported as 30 fold, the “Increased stability (MLM half-life)” value ([5]; vs OCH3 N-hetero ligand 13g) is reported as “six-fold” and the “Increase in metabolic stability in HLM” value ([6]; vs 8o) is reported as 11 fold. For the same compound, the “Increased stability (HLM half-life)” value ([6]; vs OCH3 N-hetero ligand 13g) was “three-fold” and the “Efficacy / activity” value [2] was “retained some efficacy; also recorded: efficacies comparable to 8n”.

With `[2H]C([2H])([2H])Oc1ccc(-n2nc3c4ccc(OC([2H])([2H])[2H])cc4[nH]cc-3c2=O)cc1` [Compound 8d, 7-Methoxy-d3-2-(4-methoxy-d3-phenyl)-2,5-dihydro-3H-pyrazolo[4,3-c]quinolin-3-one] the “Brain concentration (Cmax) compared with parent 8a” value [7] was “almost two-fold increase”.

For `COc1ccc(-n2nc3c4ccc(OC)cc4[nH]cc-3c2=O)cc1` [Compound 8a, 7-Methoxy-2-(4-methoxyphenyl)-2,5-dihydro-3H-pyrazolo[4,3-c]quinolin-3-one], the “Activity at Dopamine D5” value [8] was “showed activity” and the Hyperlocomotor action [9] was “induced a hyperlocomotor action”.

With `[2H]C([2H])([2H])Oc1cccc(-n2nc3c4cc(Cl)ccc4[nH]cc-3c2=O)c1` [Compound 8j, 8-Chloro-2-(3-methoxy-d3-phenyl)-2,5-dihydro-3H-pyrazolo[4,3-c]quinolin-3-one] the “Increase in half-life (MLM) relative to parent ligand” value [5] was “two-fold”, the “Increase in half-life (HLM) relative to parent ligand” value [6] was “three-fold” and the “Efficacy / activity” value [2] was “poorer efficacy”. The “Cytotoxicity / cell viability” value [10] was “no impact on cytotoxicity” and the “Cytotoxicity / cell viability” value [11] was “no impact on cytotoxicity”.

With `[2H]C([2H])([2H])Oc1ccc(-n2nc3c4cc(Cl)ccc4[nH]cc-3c2=O)cn1` [Compound 13f, 8-Chloro-2-(6-methoxy-d3-pyridin-3-yl)-2,5-dihydro-3H-pyrazolo[4,3-c]quinolin-3-one] the “Increased half-life (HLM)” value ([6]; vs OCH3 N-hetero ligand 13e) was 40% and the “Efficacy / activity” value [2] was “much poorer efficacy”.

In the case of `COc1ccc(-n2nc3c4cc(Cl)ccc4[nH]cc-3c2=O)cn1` [Compound 13e, 8-Chloro-2-(6-methoxypyridin-3-yl)-2,5-dihydro-3H-pyrazolo[4,3-c]quinolin-3-one], the “Increase in half-life (MLM) relative to parent ligand” value [5] is reported as “two-fold”, the “Increase in half-life (HLM) relative to parent ligand” value [6] is reported as “nearly four-fold” and the “Cytotoxicity / cell viability” value [10] is reported as “no impact of cell viability”. For the same compound, the “Cytotoxicity / cell viability” value [11] was “no impact of cell viability” and the “Decrease in water solubility” value [12] was about 10 fold.

In the case of `[2H]C([2H])([2H])Oc1ccc2c3nn(-c4ccc(OC)nc4)c(=O)c-3c[nH]c2c1` [Compound 13c, 7-Methoxy-d3-2-(6-methoxypyridin-3-yl)-2,5-dihydro-3H-pyrazolo[4,3-c]quinolin-3-one], the “Brain AUC0-12 as % of that obtained with 8b” value [7] is reported as 45%, the “Brain AUC0-12 as % of that obtained with 8c” value [7] is reported as 36% and the “Brain AUC0-12 as % of that obtained with 8d” value [7] is reported as 55%. The “Brain concentration (Cmax) compared with parent 8a” value [7] was “considerably less”, the “Efficacy / activity” value [2] was “retained some efficacy” and the “Activity at α1-5β3γ2 receptors” value [13] was “lack of activity”. The “Cytotoxicity / cell viability” value [10] was “no impact of cell viability” and the “Cytotoxicity / cell viability” value [11] was “no impact of cell viability”.

With `[2H]C([2H])([2H])Oc1ccc(-n2nc3c4ccc(OC)cc4[nH]cc-3c2=O)cc1` [Compound 8b, 7-Methoxy-2-(4-methoxy-d3-phenyl)-2,5-dihydro-3H-pyrazolo[4,3-c]quinolin-3-one] the “Brain concentration (Cmax) compared with parent 8a” value [7] was “almost two-fold increase”, the “Free (unbound) brain concentrations” value [7] was about 100 nM and the “Increase in half-life (MLM) relative to parent ligand” value [5] was “three-fold”. For the same compound, the “Increase in half-life (HLM) relative to parent ligand” value [6] was 2.5 fold, the “Hyperlocomotor effect in combination with diazepam” value ([9]; IP 10 mg/kg with diazepam 3 mg/kg IP) was “present” and the Hyperlocomotor action [9] was “induced a hyperlocomotor action”. For the same compound, the Hyperlocomotor response ([14]; IP 10 mg/kg, first experiment (Figure 11A)) was “induced a hyperlocomotor response”, the Hyperlocomotor response ([14]; IP 10 mg/kg, repeated experiment (Figure 11C)) was “did not reach statistical significance” and the Hyperlocomotor response ([14]; IP 3 and 10 mg/kg, third experiment (Figure 11E)) was “present”. The “Motor coordination and balance on the rotarod” value ([15]; IP doses as high as 55 mg/kg) was “retained”.

For `[2H]C([2H])([2H])Oc1ccc2c3nn(-c4ccccc4OC([2H])([2H])[2H])c(=O)c-3c[nH]c2c1` [Compound 8f, 7-Methoxy-d3-2-(2-methoxy-d3-phenyl)-2,5-dihydro-3H-pyrazolo[4,3-c]quinolin-3-one], the “Cytotoxicity / cell viability” value [10] was “no impact on cytotoxicity” and the “Cytotoxicity / cell viability” value [11] was “no impact on cytotoxicity”.

With `[2H]C([2H])([2H])Oc1ccc(-n2nc3c4ccc(OC)cc4[nH]cc-3c2=O)cn1` [Compound 13b, 7-Methoxy-2-(6-methoxy-d3-pyridin-3-yl)-2,5-dihydro-3H-pyrazolo[4,3-c]quinolin-3-one] the “Efficacy / activity” value [2] was “retained some efficacy”.

In the case of `[2H]C([2H])([2H])Oc1cccc(-n2nc3c4ccc(OC([2H])([2H])[2H])cc4[nH]cc-3c2=O)c1` [Compound 8e, 7-Methoxy-d3-2-(3-methoxy-d3-phenyl)-2,5-dihydro-3H-pyrazolo[4,3-c]quinolin-3-one], the “Cytotoxicity / cell viability” value [10] is reported as “no impact on cytotoxicity” and the “Cytotoxicity / cell viability” value [11] is reported as “no impact on cytotoxicity”.

With `[2H]C([2H])([2H])Oc1ccc(-n2nc3c4ccc(Br)cc4[nH]cc-3c2=O)cc1` [Compound 8o, 7-Bromo-2-(4-methoxy-d3-phenyl)-2,5-dihydro-3H-pyrazolo[4,3-c]quinolin-3-one] the “Increase in MLM-mediated half-life” value ([5]; vs parent 8n) was 20%, the “Increase in half-life (HLM) relative to parent ligand” value [6] was “two-fold” and the “Efficacy / activity” value [2] was “efficacies comparable to 8n”.

In the case of `[2H]C([2H])([2H])Oc1ccccc1-n1nc2c3cc(Cl)ccc3[nH]cc-2c1=O` [Compound 8m, 8-Chloro-2-(2-methoxy-d3-phenyl)-2,5-dihydro-3H-pyrazolo[4,3-c]quinolin-3-one], the “Efficacy / activity” value [2] is reported as “completely inactive; also recorded: no activity; also recorded: almost no efficacy”, the “Cytotoxicity / cell viability” value [10] is reported as “no impact on cytotoxicity” and the “Cytotoxicity / cell viability” value [11] is reported as “no impact on cytotoxicity”. The “Binding” value [1] was “reasonable binding affinity” and the “Motor coordination and balance on the rotarod” value ([15]; IP doses as high as 60 mg/kg) was “retained”.

For `[2H]C([2H])([2H])Oc1ccc2c3nn(-c4ccc(OC)cc4)c(=O)c-3c[nH]c2c1` [Compound 8c, 7-Methoxy-d3-2-(4-methoxyphenyl)-2,5-dihydro-3H-pyrazolo[4,3-c]quinolin-3-one], the “Brain concentration (Cmax) compared with parent 8a” value [7] was “almost two-fold increase”, the “Increase in half-life (MLM) relative to parent ligand” value [5] was “four-fold” and the “Increase in half-life (HLM) relative to parent ligand” value [6] was “three-fold”.

With `[2H]C([2H])([2H])Oc1ccccc1-n1nc2c3ccc(Br)cc3[nH]cc-2c1=O` [Compound 8q, 7-Bromo-2-(2-methoxy-d3-phenyl)-2,5-dihydro-3H-pyrazolo[4,3-c]quinolin-3-one] the “Binding” value [1] was “significantly less binding; also recorded: significantly reduced affinity”.

With `COc1ccc(-n2nc3c4ccc(Br)cc4[nH]cc-3c2=O)cn1` [Compound 13g, 7-Bromo-2-(6-methoxypyridin-3-yl)-2,5-dihydro-3H-pyrazolo[4,3-c]quinolin-3-one] the “Increase in half-life (MLM) relative to parent ligand” value [5] was “seven-fold”, the “Increase in half-life (HLM) relative to parent ligand” value [6] was “seven-fold” and the “Cytotoxicity / cell viability” value [10] was “no impact of cell viability”. The “Cytotoxicity / cell viability” value [11] was “no impact of cell viability”.
